This passage reports Emax, Activity and EC50 results from ChEMBL document CHEMBL4808171, “Structure-Activity Relationship Study and Biological Evaluation of 2-(Disubstituted phenyl)-indole-5-propanoic Acid Derivatives as GPR40 Full Agonists” (J Med Chem, 2021).

Activity calls are given as the source filed them. The calls are words filed in the database; no cut-off is given here.

By EC50 is commonly meant the concentration at which the effect is half-maximal.

Chain of Free fatty acid receptor 1 (O14842 whole entry): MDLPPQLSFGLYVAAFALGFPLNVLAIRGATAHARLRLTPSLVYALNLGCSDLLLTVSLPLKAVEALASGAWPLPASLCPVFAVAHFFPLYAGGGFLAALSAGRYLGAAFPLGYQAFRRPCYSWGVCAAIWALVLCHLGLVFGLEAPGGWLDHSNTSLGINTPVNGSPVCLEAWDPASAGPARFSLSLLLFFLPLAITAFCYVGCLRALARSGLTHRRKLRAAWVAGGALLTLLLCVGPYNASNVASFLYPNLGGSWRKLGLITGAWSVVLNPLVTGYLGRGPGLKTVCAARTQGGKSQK

The first assay concerns the target Free fatty acid receptor 1 (Homo sapiens, UniProt O14842). Nature of the assay: Agonist activity at GPR40 (unknown origin) expressed in CHO cells co-expressing luc2P/SRE assessed as firefly luciferase activity at 10 uM incubated for 24 hrs hrs by Bright-Glo based serum response element (SRE) luciferase reporter assay relative to TAK875. The format is functional, cell-based.
Settings: not given
Background: A reporter such as luciferase makes a cellular process visible.
Regarding `O=C(O)CCc1ccc2[nH]c(-c3ccncc3Cl)cc2c1`, the Emax was 24.7%.

On to `O=C(O)CCc1ccc2[nH]c(-c3cc(Cl)ccc3Cl)cc2c1`, for which the Emax was 22.8%.

Regarding `Cc1ccc(C)c(-c2cc3cc(CCC(=O)O)ccc3n2C)c1`, the Emax turned out to be 20.3%.

Regarding `O=C(O)CCc1ccc2[nH]c(-c3cccc(Cl)c3F)cc2c1`, the Emax was 6.81%.

On to `Cc1cc(F)ccc1-c1cc2cc(CCC(=O)O)ccc2n1C`, for which the Emax was determined as 16.9%.

With `O=C(O)CCc1ccc2[nH]c(-c3ccc(Cl)cc3C(F)(F)F)cc2c1`, the Emax turned out to be 7.67%.

On to `O=C(O)CCc1ccc2[nH]c(-c3ccc(Cl)cc3F)cc2c1`, for which the Emax stood at 2.18%.

For `Cc1ccc(Cl)cc1-c1cc2cc(CCC(=O)O)ccc2[nH]1`, the Emax was 35%.

The assay is the same for the next values; noted with them: filed as agonist.
Take `O=C(O)CCc1ccc2[nH]c(-c3c(Cl)cccc3Cl)cc2c1`: the Emax turned out to be 78.3%.

Consider `Cc1cc(Br)ccc1-c1cc2cc(CCC(=O)O)ccc2[nH]1`, for which the Emax turned out to be 95.3%.

`Cc1c(Cl)cccc1-c1cc2cc(CCC(=O)O)ccc2[nH]1`: the Emax worked out at 109%.

For the compound `O=C(O)CCc1ccc2[nH]c(-c3cccc(Cl)c3Cl)cc2c1`, the Emax is 81.2%.

Consider `Cc1cccc(C)c1-c1cc2cc(CCC(=O)O)ccc2[nH]1`, for which the Emax was determined as 69.5%.

Take `Cc1cc(Cl)ccc1-c1cc2cc(CCC(=O)O)ccc2[nH]1`: the Emax worked out at 109%.

For `Cc1ccc(-c2cc3cc(CCC(=O)O)ccc3[nH]2)c(C)c1`, the Emax was 61.8%.

Consider `O=C(O)CCc1ccc2[nH]c(-c3ccc(Cl)cc3Cl)cc2c1`, for which the Emax was 48%.

A further assay deals with STC1. As to the kind of experiment: Induction of GLP-1 secretion in […] STC1 cells at 100 uM after 1 hrs by ELISA. The format is functional, cell-based.
Settings: not given
On the technique in general: ELISA stands for enzyme-linked immunosorbent assay.
Regarding `CCCCC/C=C\C/C=C\CCCCCCCC(=O)O`, the result was Active.

A further assay concerns the target T1, Peroxisome proliferator-activated receptor gamma (Homo sapiens, UniProt P37231).
T1 sequence (P37231 whole entry): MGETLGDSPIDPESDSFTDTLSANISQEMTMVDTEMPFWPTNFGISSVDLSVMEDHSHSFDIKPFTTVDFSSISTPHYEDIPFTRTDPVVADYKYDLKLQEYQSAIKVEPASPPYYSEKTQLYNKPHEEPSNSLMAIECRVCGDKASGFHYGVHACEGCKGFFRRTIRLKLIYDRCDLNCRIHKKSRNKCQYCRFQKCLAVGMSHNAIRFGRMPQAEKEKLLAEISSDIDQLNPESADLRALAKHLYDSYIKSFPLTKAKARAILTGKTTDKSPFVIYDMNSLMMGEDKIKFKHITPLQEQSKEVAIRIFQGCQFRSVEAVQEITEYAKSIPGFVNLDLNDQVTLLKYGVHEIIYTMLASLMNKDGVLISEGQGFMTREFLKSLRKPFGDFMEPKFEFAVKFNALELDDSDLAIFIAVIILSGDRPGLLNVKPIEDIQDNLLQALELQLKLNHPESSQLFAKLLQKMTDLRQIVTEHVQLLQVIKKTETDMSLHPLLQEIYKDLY
Nature of the assay: Agonist activity at human PPARgamma expressed in CHO cells assessed as increase in receptor transcriptional activity incubated for 24 hrs by dual luciferase reporter gene assay. Type of assay: cell-based. The following applies: cho.
Turning to `Cc1c(Cl)cccc1-c1cc2cc(CCC(=O)O)ccc2[nH]1`, the EC50 entry is recorded as “Not Active”.

Still in this assay, the particulars now being: read-out: EC50.
On to `Cc1cc(Cl)ccc1-c1cc2cc(CCC(=O)O)ccc2[nH]1`, for which the EC50 was 27.8 µM.

The target of a further assay is T2, Peroxisome proliferator-activated receptor gamma (Homo sapiens) (UniProt P37231).
T2 sequence (whole entry): T1 sequence (P37231 whole entry)
As to the kind of experiment: Agonist activity at human PPARgamma expressed in CHO cells assessed as increase in receptor transcriptional activity at 1 uM incubated for 24 hrs by dual luciferase reporter gene assay relative to rosiglitazone. Type of assay: cell-based.
Settings: not given
`O=C(O)CCc1ccc2[nH]c(-c3ccncc3Cl)cc2c1`: the Emax was determined as 0.19%.

For `O=C(O)CCc1ccc2[nH]c(-c3cc(Cl)ccc3Cl)cc2c1`, the Emax amounted to 2.69%.

Consider `O=C(O)CCc1ccc2[nH]c(-c3c(Cl)cccc3Cl)cc2c1`, for which the Emax was found to be 11.5%.

For `Cc1ccc(C)c(-c2cc3cc(CCC(=O)O)ccc3n2C)c1`, the Emax is 0.01%.

With `Cc1cc(Br)ccc1-c1cc2cc(CCC(=O)O)ccc2[nH]1`, the Emax was 30.6%.

For the compound `O=C(O)CCc1ccc2[nH]c(-c3cccc(Cl)c3Cl)cc2c1`, the Emax is 12.8%.

For `Cc1cccc(C)c1-c1cc2cc(CCC(=O)O)ccc2[nH]1`, the Emax was found to be 0.52%.

As to `O=C(O)CCc1ccc2[nH]c(-c3cccc(Cl)c3F)cc2c1`, the Emax came to 18.2%.

As for `Cc1cc(F)ccc1-c1cc2cc(CCC(=O)O)ccc2n1C`, the Emax came out at 6.32%.

On to `Cc1ccc(-c2cc3cc(CCC(=O)O)ccc3[nH]2)c(C)c1`, for which the Emax stood at 2.51%.

Consider `O=C(O)CCc1ccc2[nH]c(-c3ccc(Cl)cc3C(F)(F)F)cc2c1`, for which the Emax came to 15.9%.

Regarding `O=C(O)CCc1ccc2[nH]c(-c3ccc(Cl)cc3F)cc2c1`, the Emax stood at 3.64%.

For `O=C(O)CCc1ccc2[nH]c(-c3ccc(Cl)cc3Cl)cc2c1`, the Emax was 5.39%.

For `Cc1ccc(Cl)cc1-c1cc2cc(CCC(=O)O)ccc2[nH]1`, the Emax stood at 18.3%.

The assay is the same for the next values; noted with them: filed as agonist.
In the case of `Cc1cc(Cl)ccc1-c1cc2cc(CCC(=O)O)ccc2[nH]1`, the Emax was 104%.
